Measured values reported in ChEMBL document CHEMBL1201862, “PubChem BioAssay data set” (2004).
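96-well plates; 48 h exposure; 5 concentrations. Endpoints by linear interpolation between flanking doses. Not reached: highest tested concentration assigned. Here, GI50 denotes the concentration required for 50% inhibition of growth.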 Calls of active or inactive are those of the source. No stated cut-off is given here; in the data, active = GI50 up to about 1.1 µM and inactive = higher.

Key:
Assay in all cases: inhibition of tumour cell growth, NCI panel, 48 h
A549 = system: A549
ACHN = system: ACHN
COLO 205 = system: COLO 205
HCT-15 = system: HCT-15
KM12 = system: KM12
MDA-N = system: MDA-N
Malme-3M = system: Malme-3M
NCI-H226 = system: NCI-H226
NCI-H460 = system: NCI-H460
NCI/ADR-RES = system: NCI/ADR-RES
OVCAR-4 = system: OVCAR-4
OVCAR-8 = system: OVCAR-8
RPMI-8226 = system: RPMI-8226
SF-295 = system: SF-295
SK-MEL-28 = system: SK-MEL-28
SK-MEL-5 = system: SK-MEL-5
SN12C = system: SN12C
SR = system: SR
T47D = system: T47D
UACC-62 = system: UACC-62

Compound: Oc1ccc2ccccc2c1/C=C/c1ccc2c(Br)cc(Br)c(O)c2n1
- GI50 (A549): 4.74 µM (inactive)
- GI50 (ACHN): 5.6 µM (inactive)
- GI50 (COLO 205): 4.86 µM (inactive)
- GI50 (HCT-15): 0.787 µM
- GI50 (KM12): 5.4 µM (inactive)
- GI50 (MDA-N): 9.71 µM (inactive)
- GI50 (Malme-3M): 12.7 µM (inactive)
- GI50 (NCI-H226): 5.02 µM (inactive)
- GI50 (NCI-H460): 1.75 µM (inactive)
- GI50 (NCI/ADR-RES): 2.41 µM (inactive)
- GI50 (OVCAR-4): 9.82 µM (inactive)
- GI50 (OVCAR-8): 3.57 µM (inactive)
- GI50 (RPMI-8226): 4.06 µM (inactive)
- GI50 (SF-295): 4.32 µM (inactive)
- GI50 (SK-MEL-28): 12.8 µM (inactive)
- GI50 (SK-MEL-5): 3.36 µM (inactive)
- GI50 (SN12C): 5.04 µM (inactive)
- GI50 (SR): 3.12 µM (inactive)
- GI50 (T47D): 11.6 µM (inactive)
- GI50 (UACC-62): 6.01 µM (inactive)

Compound: COC(=O)C1=NN2c3ccccc3CN([C@@H](C)c3ccccc3)C(=O)[C@@H]2C1
- GI50 (A549): 31.4 µM (inactive)
- GI50 (ACHN): 34 µM (inactive)
- GI50 (COLO 205): 35.6 µM (inactive)
- GI50 (HCT-15): 31.7 µM
- GI50 (KM12): 21.2 µM (inactive)
- GI50 (MDA-N): 28.3 µM (inactive)
- GI50 (Malme-3M): 23.1 µM (inactive)
- GI50 (NCI-H226): 54.1 µM (inactive)
- GI50 (NCI-H460): 58.3 µM (inactive)
- GI50 (NCI/ADR-RES): 21 µM (inactive)
- GI50 (OVCAR-4): 13.3 µM (inactive)
- GI50 (OVCAR-8): 34.6 µM (inactive)
- GI50 (RPMI-8226): 24.5 µM (inactive)
- GI50 (SF-295): 40.2 µM (inactive)
- GI50 (SK-MEL-28): 38.7 µM (inactive)
- GI50 (SK-MEL-5): 18.7 µM (inactive)
- GI50 (SN12C): 56.1 µM (inactive)
- GI50 (SR): 22 µM (inactive)
- GI50 (T47D): 14.1 µM (inactive)
- GI50 (UACC-62): 19 µM (inactive)

Compound: CC(C)=CCC[C@@H](C)C1=C(Nc2ccccc2Cl)C(=O)C(C)=C(O)C1=O
- GI50 (A549): 3.24 µM (inactive)
- GI50 (ACHN): 2.26 µM (inactive)
- GI50 (COLO 205): 2.84 µM (inactive)
- GI50 (HCT-15): 2.38 µM
- GI50 (KM12): 3.08 µM (inactive)
- GI50 (MDA-N): 4.5 µM (inactive)
- GI50 (Malme-3M): 4.29 µM (inactive)
- GI50 (NCI-H226): 4.69 µM (inactive)
- GI50 (NCI-H460): 2.43 µM (inactive)
- GI50 (NCI/ADR-RES): 1.1 µM (active)
- GI50 (OVCAR-4): 5.53 µM (inactive)
- GI50 (OVCAR-8): 2.81 µM (inactive)
- GI50 (RPMI-8226): 1.17 µM (inactive)
- GI50 (SF-295): 2.88 µM (inactive)
- GI50 (SK-MEL-28): 11 µM (inactive)
- GI50 (SK-MEL-5): 1.95 µM (inactive)
- GI50 (SN12C): 3.72 µM (inactive)
- GI50 (SR): 1.2 µM (inactive)
- GI50 (T47D): 5.62 µM (inactive)
- GI50 (UACC-62): 3.67 µM (inactive)

Compound: COc1ccc2oc(=O)c(-c3nc4ccccc4o3)cc2c1
- GI50 (A549): > 100 µM (inactive)
- GI50 (ACHN): > 100 µM (inactive)
- GI50 (COLO 205): 81.7 µM (inactive)
- GI50 (HCT-15): 59 µM
- GI50 (KM12): 27.4 µM (inactive)
- GI50 (MDA-N): 29.1 µM (inactive)
- GI50 (Malme-3M): > 100 µM (inactive)
- GI50 (NCI-H226): > 100 µM (inactive)
- GI50 (NCI-H460): 74 µM (inactive)
- GI50 (NCI/ADR-RES): 40.5 µM (inactive)
- GI50 (OVCAR-4): > 100 µM (inactive)
- GI50 (OVCAR-8): > 100 µM (inactive)
- GI50 (RPMI-8226): 98.2 µM (inactive)
- GI50 (SF-295): 61.7 µM (inactive)
- GI50 (SK-MEL-28): > 100 µM (inactive)
- GI50 (SK-MEL-5): 39.1 µM (inactive)
- GI50 (SN12C): > 100 µM (inactive)
- GI50 (SR): 5.25 µM (inactive)
- GI50 (T47D): 58.2 µM (inactive)
- GI50 (UACC-62): 65 µM (inactive)

Compound: O=C(c1ccccc1)c1ccc2c(c1)NC(=O)c1ccccc1SSc1ccccc1C(=O)N2
- GI50 (A549): > 100 µM (inactive)
- GI50 (ACHN): > 100 µM (inactive)
- GI50 (COLO 205): > 100 µM (inactive)
- GI50 (HCT-15): > 100 µM
- GI50 (KM12): > 100 µM (inactive)
- GI50 (MDA-N): > 100 µM (inactive)
- GI50 (Malme-3M): > 100 µM (inactive)
- GI50 (NCI-H226): > 100 µM (inactive)
- GI50 (NCI-H460): > 100 µM (inactive)
- GI50 (NCI/ADR-RES): > 100 µM (inactive)
- GI50 (OVCAR-4): > 100 µM (inactive)
- GI50 (OVCAR-8): > 100 µM (inactive)
- GI50 (RPMI-8226): > 100 µM (inactive)
- GI50 (SF-295): > 100 µM (inactive)
- GI50 (SK-MEL-28): > 100 µM (inactive)
- GI50 (SK-MEL-5): > 100 µM (inactive)
- GI50 (SN12C): > 100 µM (inactive)
- GI50 (SR): 85.5 µM (inactive)
- GI50 (T47D): > 100 µM (inactive)
- GI50 (UACC-62): > 100 µM (inactive)

Compound: CC[C@](O)(CC(=O)O[C@H]1C(=O)O[C@@H]2C[C@H]3C(C)=CC(=O)[C@@H](O)[C@]3(C)[C@H]3[C@@]4(O)OC[C@]32[C@@H]1[C@@H](C)[C@H]4O)C(C)C
- GI50 (A549): < 0.01 µM (active)
- GI50 (ACHN): < 0.01 µM (active)
- GI50 (COLO 205): < 0.01 µM (active)
- GI50 (HCT-15): < 0.01 µM
- GI50 (KM12): < 0.01 µM (active)
- GI50 (MDA-N): < 0.01 µM (active)
- GI50 (Malme-3M): < 0.01 µM (active)
- GI50 (NCI-H226): < 0.01 µM (active)
- GI50 (NCI-H460): < 0.01 µM (active)
- GI50 (NCI/ADR-RES): < 0.0188 µM (active)
- GI50 (OVCAR-4): < 0.01 µM (active)
- GI50 (OVCAR-8): < 0.01 µM (active)
- GI50 (RPMI-8226): < 0.01 µM (active)
- GI50 (SF-295): < 0.01 µM (active)
- GI50 (SK-MEL-28): < 0.01 µM (active)
- GI50 (SK-MEL-5): < 0.01 µM (active)
- GI50 (SN12C): < 0.01 µM (active)
- GI50 (SR): < 0.01 µM (active)
- GI50 (T47D): < 0.01 µM (active)
- GI50 (UACC-62): < 0.01 µM (active)

Compound: COc1ccccc1NC(=S)NN=C(C)c1cccc(C(C)=NNC(=S)Nc2ccccc2OC)n1
- GI50 (A549): 29.2 µM (inactive)
- GI50 (ACHN): 14.7 µM (inactive)
- GI50 (COLO 205): 19.6 µM (inactive)
- GI50 (HCT-15): 28.5 µM
- GI50 (KM12): 26.1 µM (inactive)
- GI50 (MDA-N): 70.5 µM (inactive)
- GI50 (Malme-3M): 3.49 µM (inactive)
- GI50 (NCI-H226): 28.4 µM (inactive)
- GI50 (NCI-H460): 24 µM (inactive)
- GI50 (NCI/ADR-RES): 10.4 µM (inactive)
- GI50 (OVCAR-4): 24.4 µM (inactive)
- GI50 (OVCAR-8): 12.9 µM (inactive)
- GI50 (RPMI-8226): 24.6 µM (inactive)
- GI50 (SF-295): 26.8 µM (inactive)
- GI50 (SK-MEL-28): 79.4 µM (inactive)
- GI50 (SK-MEL-5): 3.94 µM (inactive)
- GI50 (SN12C): 30 µM (inactive)
- GI50 (SR): 1.66 µM (inactive)
- GI50 (T47D): > 100 µM (inactive)
- GI50 (UACC-62): 20.5 µM (inactive)

Compound: COc1cccc(/N=N/C(=N/NC(=O)c2ccc(C)cc2)c2ccc(N(CCC#N)CCC#N)cc2OC)c1
- GI50 (A549): > 100 µM (inactive)
- GI50 (ACHN): > 100 µM (inactive)
- GI50 (COLO 205): > 100 µM (inactive)
- GI50 (HCT-15): > 100 µM
- GI50 (KM12): > 100 µM (inactive)
- GI50 (MDA-N): > 100 µM (inactive)
- GI50 (Malme-3M): > 100 µM (inactive)
- GI50 (NCI-H226): > 100 µM (inactive)
- GI50 (NCI-H460): 3.76 µM (inactive)
- GI50 (NCI/ADR-RES): > 100 µM (inactive)
- GI50 (OVCAR-4): > 100 µM (inactive)
- GI50 (OVCAR-8): > 100 µM (inactive)
- GI50 (RPMI-8226): > 100 µM (inactive)
- GI50 (SF-295): 59 µM (inactive)
- GI50 (SK-MEL-28): > 100 µM (inactive)
- GI50 (SK-MEL-5): > 100 µM (inactive)
- GI50 (SN12C): > 100 µM (inactive)
- GI50 (SR): > 100 µM (inactive)
- GI50 (T47D): > 100 µM (inactive)
- GI50 (UACC-62): > 100 µM (inactive)

Compound: CC1(C)CC(O)C2=C(O1)C(=O)c1ncccc1C2=O (stereo not given)
- GI50 (A549): 9.51 µM (inactive)
- GI50 (ACHN): 2.93 µM (inactive)
- GI50 (COLO 205): 2.32 µM (inactive)
- GI50 (HCT-15): 4.02 µM
- GI50 (KM12): 3.48 µM (inactive)
- GI50 (MDA-N): 1.75 µM (inactive)
- GI50 (Malme-3M): 1.49 µM (inactive)
- GI50 (NCI-H226): 1.87 µM (inactive)
- GI50 (NCI-H460): 2.52 µM (inactive)
- GI50 (NCI/ADR-RES): 1.5 µM (inactive)
- GI50 (OVCAR-4): 1.73 µM (inactive)
- GI50 (OVCAR-8): 2.6 µM (inactive)
- GI50 (RPMI-8226): 2.48 µM (inactive)
- GI50 (SF-295): 1.83 µM (inactive)
- GI50 (SK-MEL-28): 1.69 µM (inactive)
- GI50 (SK-MEL-5): 1.66 µM (inactive)
- GI50 (SN12C): 1.94 µM (inactive)
- GI50 (SR): 2.34 µM (inactive)
- GI50 (T47D): 2.26 µM (inactive)
- GI50 (UACC-62): 1.72 µM (inactive)

Compound: Cn1c2ccc(Cl)cc2c2ccc3c(c21)C(=O)C=CC3=O
- GI50 (A549): > 10 µM (inactive)
- GI50 (ACHN): > 10 µM (inactive)
- GI50 (COLO 205): > 10 µM (inactive)
- GI50 (HCT-15): > 10 µM
- GI50 (KM12): > 10 µM (inactive)
- GI50 (MDA-N): > 10 µM (inactive)
- GI50 (Malme-3M): > 10 µM (inactive)
- GI50 (NCI-H226): > 10 µM (inactive)
- GI50 (NCI-H460): > 10 µM (inactive)
- GI50 (NCI/ADR-RES): > 10 µM (inactive)
- GI50 (OVCAR-4): > 10 µM (inactive)
- GI50 (OVCAR-8): > 10 µM (inactive)
- GI50 (RPMI-8226): > 10 µM (inactive)
- GI50 (SF-295): > 10 µM (inactive)
- GI50 (SK-MEL-28): > 10 µM (inactive)
- GI50 (SK-MEL-5): > 10 µM (inactive)
- GI50 (SN12C): > 10 µM (inactive)
- GI50 (SR): > 10 µM (inactive)
- GI50 (T47D): > 10 µM (inactive)
- GI50 (UACC-62): > 10 µM (inactive)
